Assay results taken from EP0294069A2, “Purine compounds, process for their preparation, intermediates and pharmaceutical compositions” (priority 1987, dated 1988).
In brackets after ≈: the same amount, converted by molar mass.

Legend:
[1] = tested on: Visna Virus (K184 strain in SCP cells); test: CPE inhibition test (established monolayer) for lentiviruses; assay type: cell-based; settings: Visna-maedi virus
Protocol: 3 x 10⁴ sheep choroid plexus (SCP) cells were plated into individual wells of a 96 well microtitre plate in 100µl of Eagle's MEM with Hanks salts containing 10% heat inactivated foetal calf serum (FCS). When monolayers had become established (after l or 2 days growth) they were washed with 200µl of maintenance medium (Eagle's MEM with Hanks salts containing 0.5% FCS) and infected with 100µl of visna virus (strain K184) in maintenance medium (30 TCID₅₀/ml). Test samples were diluted with maintenance medium in further 96 well microtitre plates over the range 200-0.09µg/ml by 3-fold dilution steps. 100µl of the diluted samples was then transferred directly onto virus-infected monolayers (final concentration range therefore 100-0.045µg/ml) and incubated at 37°C in a humidified, 5% CO₂ incubation until virus-induced CPE was maximal in the untreated virus-infected controls (usually 12-14 days). The plates were fixed with formal saline and stained with crystal violet. Virus-induced CPE was then scored microscopically and the minimum concentration of sample giving complete protection of the cell monolayers (MIC) determined.

[2] = Drug-induced cytotoxicity in uninfected cell monolayers; assay type: cell-based; settings: uninfected cells, not cytotoxic at concentrations up to 100 µg/ml, read-out: concentration at which cytotoxicity occurs
Protocol: (§1) Cultures were fixed in formal saline, the agarose overlays were carefully washed off, and then the cell monolayers were stained with carbol fuchsin. A stereo microscope was used to count plaques. The IC₅₀ (concentration to drug which inhibits plaque number by 50% relative to the number of plaques observed in virus control monolayers) of the test compound was calculated. In addition, the monolayers were examined for evidence of drug-induced cytotoxicity; the minimum concentration at which cytotoxicity occurs was recorded.

[3] = tested on: HSV-2 (MS strain, MRC-5 cells); test: Plaque reduction test for herpes simplex virus 2; assay type: cell-based; settings: Human alphaherpesvirus 2, MRC5, plaque number reduced by 50%
Protocol: Cells (Vero or MRC-5) were grown to confluence in 24 well multi-dishes (well diameter = 1.5cm). The drained cell monolayers were each infected with approximately 50 infectious particles of herpes simplex virus 1 (HSV-1; strain HFEM) or herpes simplex virus 2 (HSV-2; strain MS) in 100µl of phosphate-buffered saline. The virus was adsorbed for 1 hour at room temperature. After adsorption, residual inoculum was removed from each well and replaced with 0.5ml of Eagle's MEM containing 5% newborn calf serum and 0.9% agarose (A37). Once the agarose had set, dilutions of the test compound, which had been prepared in Eagle's MEM (containing 5% newborn calf serum), were added, each well receiving 0.5ml of liquid overlay. The test compound was diluted to give the following series of concentrations: 200, 60, 20, 6....0.06µg/ml; final concentrations in the assay ranged, therefore, between 100µg/ml and 0.03µg/ml. […]
as §1, with “A stereo microscope was used to count plaques.” left out

[4] = tested on: HSV-1 (SC16 strain, MRC-5 cells); test: Plaque reduction test for herpes simplex virus 1; assay type: cell-based; settings: Human alphaherpesvirus 1, MRC5, plaque number reduced by 50%
[5] = Antiviral potency, comparison of isomers (no method given); settings: as compared with the (R)-isomer

Row | Compound | IC50 [1] | MCC [2] | IC50 [3] | IC50 [4] | potency as an antiviral agent [5]
1 | Nc1nc2c(ncn2OC[C@@H](O)CO)c(=O)[nH]1 [Preparation Example, (S)-9-(2,3-Dihydroxyprop-1-oxy)quanine] | 10 mg/L (≈ 41.5 µM) | > 100 µg/mL | 0.06 mg/L (≈ 0.249 µM) | 0.7 mg/L (≈ 2.9 µM) | –
2 | Nc1ncc2ncn(OC[C@@H](O)CO)c2n1 [Example, (S)-2-Amino-9-(2,3-dihydroxyprop-l-oxy)purine] | – | – | – | – | greater potency
